From patent US8163509B2, “Biological markers predictive of anti-cancer response to insulin-like growth factor-1 receptor kinase inhibitors” (The Regents of the University of Colorado, A Body Corporate, priority 2008, dated 2012)

Biological target: T1, IGF1R (Homo sapiens, UniProt P08069)
T1 construct: endogenous in cells; host or cells: HT29 and HCT116 CRC cell lines
Experiment: Meso Scale Discovery (MSD) assay of phosphorylated IGF1R
Assay type: cell-based
Settings: HT29 and HCT116; 72 h; PQIP 0.4 μmol/L, SN38 0.004 μmol/L, Oxaliplatin 1.0 μmol/L
Method: Detection of IGF1R using Meso Scale Discovery assays (MSD): HT29 and HCT116 CRC cell lines were seeded into 6-well plates, allowed to attach for 24 hours and exposed to PQIP and chemotherapy (SN38, or Oxaliplatin) alone or in combination for 72 h. Following exposure, cells were rinsed with PBS and scraped into RIPA lysis buffer containing protease inhibitors, EDTA, NaF, and sodium orthovanadate. Total protein was quantified using the BioRad Dc Protein Assay (BioRad, Hercules, Calif.). Fifty micrograms of protein in 25 μL was added per well for MSD detection of phosphorylated IGF-1R according to manufacturer's instructions (Meso Scale Discovery, Gaithersburg, Md.).
Cells were exposed to PQIP (0.4 μmol/L) and chemotherapy (SN38 0.004 μmol/L, or Oxaliplatin 1.0 μmol/L) alone or in combination for 72 h. Protein was extracted and analyzed for phospho/total IGF1R levels using a Meso Scale Discovery (MSD; Gaithersburg, Md. 20877) assay.

T1 sequence (P08069 31-1367): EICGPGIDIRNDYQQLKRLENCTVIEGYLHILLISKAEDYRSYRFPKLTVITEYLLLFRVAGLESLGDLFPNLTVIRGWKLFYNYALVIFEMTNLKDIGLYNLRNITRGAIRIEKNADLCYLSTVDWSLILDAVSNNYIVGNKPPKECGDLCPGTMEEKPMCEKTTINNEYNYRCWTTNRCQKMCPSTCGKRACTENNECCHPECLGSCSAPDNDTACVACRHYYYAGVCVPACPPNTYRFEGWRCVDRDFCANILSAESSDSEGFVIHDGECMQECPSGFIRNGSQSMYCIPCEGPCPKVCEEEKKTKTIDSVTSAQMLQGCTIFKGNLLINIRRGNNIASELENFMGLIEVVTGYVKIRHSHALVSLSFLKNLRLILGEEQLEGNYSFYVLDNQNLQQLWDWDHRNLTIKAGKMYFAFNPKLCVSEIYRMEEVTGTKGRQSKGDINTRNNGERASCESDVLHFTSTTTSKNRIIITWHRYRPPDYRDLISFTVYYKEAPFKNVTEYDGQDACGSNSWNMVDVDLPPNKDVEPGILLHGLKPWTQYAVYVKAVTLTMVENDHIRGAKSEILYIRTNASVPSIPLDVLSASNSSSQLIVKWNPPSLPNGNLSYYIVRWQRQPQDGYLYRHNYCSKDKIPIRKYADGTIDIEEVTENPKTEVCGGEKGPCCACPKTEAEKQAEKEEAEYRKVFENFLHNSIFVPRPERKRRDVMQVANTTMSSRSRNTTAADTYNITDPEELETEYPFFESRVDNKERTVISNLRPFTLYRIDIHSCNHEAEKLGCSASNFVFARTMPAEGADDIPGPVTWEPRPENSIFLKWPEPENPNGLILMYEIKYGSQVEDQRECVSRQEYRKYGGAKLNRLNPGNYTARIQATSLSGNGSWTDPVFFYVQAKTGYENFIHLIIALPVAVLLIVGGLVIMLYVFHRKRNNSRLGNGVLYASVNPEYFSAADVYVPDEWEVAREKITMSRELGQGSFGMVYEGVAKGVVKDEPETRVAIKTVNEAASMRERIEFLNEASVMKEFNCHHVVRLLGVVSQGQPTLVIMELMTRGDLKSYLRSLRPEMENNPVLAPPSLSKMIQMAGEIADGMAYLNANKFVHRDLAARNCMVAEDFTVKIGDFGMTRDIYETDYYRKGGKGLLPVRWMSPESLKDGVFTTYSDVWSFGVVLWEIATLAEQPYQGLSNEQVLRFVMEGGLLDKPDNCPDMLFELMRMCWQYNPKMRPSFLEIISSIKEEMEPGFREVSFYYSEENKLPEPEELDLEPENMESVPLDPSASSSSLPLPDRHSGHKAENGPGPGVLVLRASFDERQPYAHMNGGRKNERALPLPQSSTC

| Compound | effect on phosphorylated IGF1R, agent alone |
| --- | --- |
| CCc1c2c(nc3ccc(O)cc13)-c1cc3c(c(=O)n1C2)COC(=O)[C@]3(O)CC [SN38, 7-Ethyl-10-hydroxy-camptothecin, reference compound] | no significant effect |
| O=C1[O][Pt]2([NH][C@@H]3CCCC[C@H]3[NH]2)[O]C1=O [Oxaliplatin, reference compound] | no significant effect |
